Data: the supplement of paper PMC6045584
± gives the standard deviation of the averaged measurements.

Legend:
LAPATINIB = compound: CS(=O)(=O)CCNCc1ccc(-c2ccc3ncnc(Nc4ccc(OCc5cccc(F)c5)c(Cl)c4)c3c2)o1 [LAPATINIB]; test: surviving fraction relative to DMSO-only wells; higher = less growth inhibition; conditions: exposure time: 5 days
How it was run: (§1)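 Tumour cell lines in log phase were plated in 384-well plates at 250–500 cells per well, then, after 24 hours, exposed continuously for five days to inhibitors at 0.5, 1, 5, 10, 50, 100, 500 and 1000 nM. Viability came from CellTiter-Glo luminescence, and surviving fraction is that signal normalised to the median of DMSO-only wells. Plates were read after 10 minutes at room temperature, and each line, screened three times, was kept only when replicate Pearson r was >0.7 and median Z' was >0.3.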

RESVERATROL = compound: Oc1ccc(/C=C/c2cc(O)cc(O)c2)cc1 [RESVERATROL]; test: as above; conditions: exposure time: 5 days
How it was run: as §1

Test System	surviving fraction (LAPATINIB; 0.5 nM)	surviving fraction (LAPATINIB; 1 nM)	surviving fraction (LAPATINIB; 5 nM)	surviving fraction (LAPATINIB; 10 nM)	surviving fraction (LAPATINIB; 50 nM)	surviving fraction (LAPATINIB; 100 nM)	surviving fraction (LAPATINIB; 500 nM)	surviving fraction (LAPATINIB; 1000 nM)	surviving fraction (RESVERATROL; 0.5 nM)	surviving fraction (RESVERATROL; 1 nM)	surviving fraction (RESVERATROL; 5 nM)	surviving fraction (RESVERATROL; 10 nM)	surviving fraction (RESVERATROL; 50 nM)	surviving fraction (RESVERATROL; 100 nM)	surviving fraction (RESVERATROL; 500 nM)	surviving fraction (RESVERATROL; 1000 nM)
SYO1 SYNOVIAL	0.992 ± 0.026	1.03 ± 0.08	0.976 ± 0.034	1.04 ± 0.041	0.938 ± 0.033	0.976 ± 0.032	0.966 ± 0.026	0.975 ± 0.021	0.975 ± 0.062	0.996 ± 0.027	0.996 ± 0.04	0.991 ± 0.044	0.974 ± 0.045	1.01 ± 0.038	0.987 ± 0.039	1.01 ± 0.051
T47D BREAST	1.01 ± 0.068	1.07 ± 0.036	1.08 ± 0.072	1.07 ± 0.05	1.01 ± 0.019	1.04 ± 0.05	1 ± 0.041	1.01 ± 0.017	1.06 ± 0.011	1.1 ± 0.036	1.11 ± 0.049	1.11 ± 0.017	0.997 ± 0.15	1.08 ± 0.08	1.02 ± 0.15	1.08 ± 0.16
U2OS BONE	1.03 ± 0.031	1.034 ± 0.0044	1.08 ± 0.014	1.08 ± 0.027	1.03 ± 0.012	1.04 ± 0.024	0.9533 ± 0.0085	0.938 ± 0.037	1.06 ± 0.018	1.04 ± 0.022	1.04 ± 0.029	1.06 ± 0.054	1.06 ± 0.031	1.08 ± 0.028	1.05 ± 0.033	1.05 ± 0.027
VCAP PROSTATE	0.835 ± 0.089	0.828 ± 0.047	0.889 ± 0.21	1.15 ± 0.049	0.957 ± 0.07	0.901 ± 0.1	0.839 ± 0.035	0.956 ± 0.073	1.02 ± 0.18	0.812 ± 0.12	0.994 ± 0.12	1.02 ± 0.13	0.901 ± 0.061	0.978 ± 0.017	0.88 ± 0.07	0.931 ± 0.18
VP229 BREAST	1.23 ± 0.14	1.21 ± 0.039	1.21 ± 0.15	–	1.04 ± 0.11	0.92 ± 0.058	0.626 ± 0.019	0.436 ± 0.087	1.19 ± 0.11	1.32 ± 0.14	1.19 ± 0.12	1.2 ± 0.17	1.09 ± 0.18	1.22 ± 0.095	1.23 ± 0.16	1.12 ± 0.19
YAMATO SYNOVIAL	1.22 ± 0.066	1.31 ± 0.15	1.23 ± 0.12	1.24 ± 0.077	1.25 ± 0.16	1.31 ± 0.022	1.21 ± 0.16	1.13 ± 0.045	1.21 ± 0.063	1.28 ± 0.1	1.34 ± 0.064	1.27 ± 0.18	1.32 ± 0.18	1.31 ± 0.099	1.25 ± 0.073	1.15 ± 0.15
ZR751 BREAST	0.879 ± 0.09	0.898 ± 0.17	1.01 ± 0.08	1.1 ± 0.23	0.816 ± 0.069	0.785 ± 0.031	0.662 ± 0.038	0.746 ± 0.062	0.956 ± 0.028	1.08 ± 0.069	0.95 ± 0.07	1.01 ± 0.037	1.01 ± 0.1	1.03 ± 0.1	0.957 ± 0.045	1.12 ± 0.088
